Test results published in paper PMC10595561, “A novel microextraction technique aided by air agitation using a natural hydrophobic deep eutectic solvent for the extraction of fluvastatin and empagliflozin from plasma samples: application to pharmacokinetic and drug–drug interaction study” (RSC Advances, 2023).
Where two headings read alike, the source gives them in different places.

Columns and labels:
[1] = cited from earlier work
[2] = tested on: organic anion transporting polypeptide 1B1 (OATP1B1); set-up: method as in PMID 27936281, PMID 19785645, PMID 29538325; settings: cited from earlier work
[3] = Pharmacokinetic study of FLV in rabbits after oral FLV alone and with EMP; type: in vivo, New Zealand white rabbits; settings: mean ± SD; for AUC(0-t) / k el / half-life / AUC(0-inf) / Cmax / MRT: rabbit, plasma, po, 2 mg/kg; for AUC(0-t): read-out: AUC0-24; for k el: read-out: Ke (elimination rate constant) (converted); for half-life: read-out: t0.5 (elimination half-life) (converted)
Protocol: Ethical approval (under the No. 06/2023/0111) for this research was granted by the ethics committee at Assiut University, Egypt, and the study was conducted in adherence to the principles outlined in the Declaration of Helsinki. The study involved six New Zealand white rabbits, each weighing 2.0 ± 0.2 kg, obtained from a licensed animal supplier in Assiut, Egypt. Before commencing the study, the rabbits' health was evaluated, ensuring they were in good condition. The rabbits were individually housed in cages measuring 0.8 × 0.6 × 0.5 m and given a 15 day acclimatization period to adjust to the experimental conditions and handling. During this time, no medications or vaccines were administered to the rabbits. The room temperature was kept constant at 25 ± 2 °C, and the relative humidity was maintained at 50 ± 5%. Throughout the acclimatization period, the rabbits were provided with a commercial pellet diet and water. Before the experiment began, the rabbits fasted for approximately 12 hours while being allowed access to water.
The rabbits administered FLV via oral route at a dose of 2.0 mg kg^−1. After a washout period of 14 days to allow any FLV to clear from the rabbits' bodies, the same rabbits administered both (2 mg kg^−1 for FLV and 1.5 mg kg^−1 for EMP). Blood samples (1.0 mL) were collected after administration of the studied analytes after 0.25, 0.5, 1, 1.5, 3, 5, 7, 10, 12, 18 and 24 h of their administration. The samples were drawn from marginal ear vein, placed into tubes that had been heparinized, and centrifuged for 15 minutes at 6000 rpm. The plasma was then collected and stored at −20 °C in dark containers until analysis. The pharmacokinetic parameters of FLV were calculated using one compartment model for the treated group using Phoenix®WinNonlin software version 5.1 (Pharsight, Mountain View, CA, USA). These parameters included total area under the curve (AUC) from 0 to 24 hours (AUC0→24), cumulative plasma concentration from 0 to infinity (AUC0→∞), peak plasma concentration (Cmax), elimination rate constant (Ke), mean residence time (MRT), absorption half-life (t1/2a), and elimination half-life (t1/2). The data are reported as mean ± standard deviation (mean ± SD). To analyze differences in parameters between the groups, t-test was employed, using GraphPad Prism 9.0.

[4] = carboxylic acid functional group; no reference given; cited from earlier work
[5] = New Zealand white, FLV (2 mg kg−1) co-administered with EMP (1.5 mg kg−1), oral, rabbit plasma
[6] = New Zealand white, FLV (2 mg kg−1) co-administered with EMP (1.5 mg kg−1), rabbit plasma
[7] = New Zealand white, FLV alone, oral 2.0 mg kg−1, rabbit plasma

Ka ([3]; FLV (2 mg kg−1) co-administered with EMP (1.5 mg kg−1), oral, rabbit plasma) [h⁻¹] | Ka ([3]; FLV alone, oral 2.0 mg kg−1, rabbit plasma) [h⁻¹] | AUC(0-t) [3, 5] [ng·h/mL] | k el [3, 5] [s⁻¹] | half-life [3, 5] [h] | AUC(0-inf) [3, 6] [ng·h/mL] | Cmax [3, 6] [ng/mL] | MRT [3, 6] [h] | AUC(0-inf) [3, 7] [ng·h/mL] | Cmax [3, 7] [ng/mL] | MRT [3, 7] [h] | AUC(0-t) [3, 7] [ng·h/mL] | k el [3, 7] [s⁻¹] | half-life [3, 7] [h] | Tmax [3, 5] [h] | Compound | log P [1] | Effect on OATP1B1 transporter [2] | pKa [4]
– | – | – | – | – | – | – | – | – | – | – | – | – | – | – | OC[C@H]1O[C@@H](c2ccc(Cl)c(Cc3ccc(O[C@H]4CCOC4)cc3)c2)[C@H](O)[C@@H](O)[C@@H]1O [EMP, Empagliflozin] | 1.7 | inhibit | –
2.52 ± 0.42 | 2.24 ± 0.42 | 2580 ± 245 | 2.5e-05 | 7.73 | 2900 ± 189 | 352 | 7.66 ± 0.77 | 1370 ± 144 | 250 | 6.99 ± 0.89 | 1340 ± 452 | 4.44e-05 | 4.27 | 1.5 | CC(C)n1c(/C=C/C(O)CC(O)CC(=O)O)c(-c2ccc(F)cc2)c2ccccc21 (stereo not shown) [FLV, Fluvastatin] | 4.5 | – | around 4.8
